For experiment [1], the target named is T1, Human PD-L1/PD-1 (Homo sapiens, UniProt Q9NZQ7).
T1 construct: made in house; host or cells: HEK293T
In words: HTRF PD-1-Ig/PD-L1-His binding assay (human PD-L1). The following applies: cluster symbol; read-out: HTRF IC50 cluster. In outline:
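The time-resolved fluorescence signal comes from Eu-cryptate anti-Ig (1 nM) and APC anti-His (20 nM) antibodies bound to a PD-1-Ig/PD-L1-His complex. Both partners lack transmembrane regions.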
In general terms: Time-resolved FRET reads energy transfer from a long-lived donor to a nearby acceptor.

Experiment [2] addresses T2, LK35.2-hPD-L1 cells / PE-labeled PD-1-Ig (Homo sapiens, UniProt Q9NZQ7).
T2 construct: expressed in transfected cells; host or cells: LK35.2 mouse B cell line
In words: LK35.2-hPD-L1 cell binding high-content screening assay. It is filed as cell-based. Conditions: cell binding assay, cell line not given; cluster symbol; read-out: CBA IC50 cluster. In outline:
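Mouse LK35.2 B cells stably over-expressing human PD-L1, cultured overnight, treated with compound plus PE-labeled human PD-1-Ig (1 nM final) in RPMI/10% FCS for 1 h at 37 °C. After washing, bound fluorescence quantified by high-content imaging.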

The structures appear in SMILES notation. pIC50: −log10 of the molar value. Positions of bridges follow the written chain, without caps; N, C: chain ends. Non-standard residues stand in square brackets, D forms with d. Residues, ends and D or L forms follow the SMILES beside them. Phe(3,4-(OMe)2) = COc1ccc(C[C@H](N)C(=O)O)cc1OC; Bip = N[C@@H](Cc1ccc(-c2ccccc2)cc1)C(=O)O; NMeF = CN[C@@H](Cc1ccccc1)C(=O)O; NMeNle = CCCC[C@H](NC)C(=O)O; Sar = CNCC(=O)O Where only a bound is given, the exact number is not on record here.

T2 sequence (Q9NZQ7 19-290): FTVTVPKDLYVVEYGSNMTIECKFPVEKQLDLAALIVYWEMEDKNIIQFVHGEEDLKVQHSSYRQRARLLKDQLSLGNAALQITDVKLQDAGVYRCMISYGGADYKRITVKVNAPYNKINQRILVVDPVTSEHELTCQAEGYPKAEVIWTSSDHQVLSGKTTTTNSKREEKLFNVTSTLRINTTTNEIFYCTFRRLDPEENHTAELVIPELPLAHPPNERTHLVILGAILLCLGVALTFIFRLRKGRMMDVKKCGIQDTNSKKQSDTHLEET
T1 sequence (Q9NZQ7 with tags, fused parts or gaps): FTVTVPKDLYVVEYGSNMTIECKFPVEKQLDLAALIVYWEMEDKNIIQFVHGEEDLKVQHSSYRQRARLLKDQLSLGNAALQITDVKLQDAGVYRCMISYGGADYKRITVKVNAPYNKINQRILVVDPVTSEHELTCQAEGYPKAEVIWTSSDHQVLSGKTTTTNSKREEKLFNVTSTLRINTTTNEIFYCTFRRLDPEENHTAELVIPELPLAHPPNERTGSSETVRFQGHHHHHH

Broadly, the pIC50 is the negative decadic logarithm of the IC50, by convention in mol/L. For `CCCC[C@H]1C(=O)N(C)CC(=O)N[C@@H](CC(=O)O)C(=O)N[C@@H](C(C)C)C(=O)N(C)[C@@H](Cc2ccccc2)C(=O)N[C@@H](Cc2ccc(O)cc2)C(=O)N(C)CC(=O)N[C@@H](Cc2c[nH]c3ccccc23)C(=O)N[C@@H](Cc2ccccc2)C(=O)N[C@@H](CC(C)C)C(=O)N[C@H](C(=O)NCC(N)=O)CSCC(=O)N[C@@H](Cc2ccccc2)C(=O)N(C)[C@@H](Cc2ccccc2)C(=O)N1C` [Example 3540] (HELM PEPTIDE1{[O=C(C[*:3])[*:2]].F.[meF].[CCCC[C@@H](C(=O)[*:2])N(C)[*:1]].[Sar].D.V.[meF].Y.[Sar].W.F.L.C.G.[am]}$PEPTIDE1,PEPTIDE1,1:R3-14:R3$$$V2.0), the negative-log IC50 (pIC50) in experiment [1] is less than 7.52; in experiment [2] it was less than 7.13.
As to `CCCC[C@H]1C(=O)N(C)CC(=O)N[C@@H](CC(=O)O)C(=O)N[C@@H](C(C)C)C(=O)N(C)[C@@H](Cc2ccccc2)C(=O)N[C@@H](Cc2ccc(O)cc2)C(=O)N(C)CC(=O)N[C@@H](Cc2c[nH]c3ccccc23)C(=O)N[C@@H](Cc2ccc(OC)c(OC)c2)C(=O)N[C@@H](CC(C)C)C(=O)N[C@H](C(=O)NCC(N)=O)CSCC(=O)N[C@@H](Cc2ccccc2)C(=O)N(C)[C@@H](Cc2ccccc2)C(=O)N1C` [Example 3541] ({CH2CO}-F[NMeF][NMeNle][Sar]DV[NMeF]Y[Sar]W[Phe(3,4-(OMe)2)]LCG-NH2; thioether N-13), the negative logarithm of the IC50 (pIC50) in experiment [1] is less than 7.52; in experiment [2], less than 7.13.
The corresponding values for `CCCC[C@H]1C(=O)N(C)CC(=O)N[C@@H](CC(=O)O)C(=O)N[C@@H](C(C)C)C(=O)N(C)[C@@H](Cc2ccccc2)C(=O)N[C@@H](CCCNC(=N)N)C(=O)N(C)CC(=O)N[C@@H](Cc2c[nH]c3ccccc23)C(=O)N[C@@H](Cc2ccc(O)cc2)C(=O)N[C@@H](CCC(=O)O)C(=O)N[C@H](C(=O)NCC(N)=O)CSCC(=O)N[C@@H](Cc2ccccc2)C(=O)N(C)[C@@H](Cc2ccccc2)C(=O)N1C` [Example 3542] (HELM PEPTIDE1{[O=C(C[*:3])[*:2]].F.[meF].[CCCC[C@@H](C(=O)[*:2])N(C)[*:1]].[Sar].D.V.[meF].R.[Sar].W.Y.E.C.G.[am]}$PEPTIDE1,PEPTIDE1,1:R3-14:R3$$$V2.0) are 7.52 to 8.17 and 7.14 to 8.32.
As to `CCCC[C@H]1C(=O)N(C)CC(=O)N[C@@H](CC(=O)O)C(=O)N[C@@H](Cc2ccccc2)C(=O)N(C)[C@@H](Cc2ccccc2)C(=O)N[C@@H](Cc2ccc(O)cc2)C(=O)N(C)CC(=O)N[C@@H](Cc2c[nH]c3ccccc23)C(=O)N[C@@H](Cc2ccc(O)cc2)C(=O)N[C@@H](CC(C)C)C(=O)N[C@H](C(=O)NCC(N)=O)CSCC(=O)N[C@@H](Cc2ccccc2)C(=O)N(C)[C@@H](Cc2ccccc2)C(=O)N1C` [Example 3543] (HELM PEPTIDE1{[O=C(C[*:3])[*:2]].F.[meF].[CCCC[C@@H](C(=O)[*:2])N(C)[*:1]].[Sar].D.F.[meF].Y.[Sar].W.Y.L.C.G.[am]}$PEPTIDE1,PEPTIDE1,1:R3-14:R3$$$V2.0), the pIC50 in experiment [1] is less than 7.52; in experiment [2], less than 7.13.
The corresponding values for `CCCC[C@H]1C(=O)N(C)CC(=O)N[C@@H](CC(=O)O)C(=O)N[C@@H](C(C)C)C(=O)N(C)[C@@H](Cc2ccccc2)C(=O)N[C@@H](Cc2ccc(O)cc2)C(=O)N(C)CC(=O)N[C@@H](Cc2ccc(-c3ccccc3)cc2)C(=O)N[C@@H](Cc2ccc(O)cc2)C(=O)N[C@@H](CC(C)C)C(=O)N[C@H](C(=O)NCC(N)=O)CSCC(=O)N[C@@H](Cc2ccccc2)C(=O)N(C)[C@@H](Cc2ccccc2)C(=O)N1C` [Example 3545] ({CH2CO}-F[NMeF][NMeNle][Sar]DV[NMeF]Y[Sar][Bip]YLCG-NH2; thioether N-13) are less than 7.52 and less than 7.13.

The record behind these values is patent publication US9850283B2, “Macrocyclic inhibitors of the PD-1/PD-L1 and CD80(B7-1)/PD-L1 protein/protein interactions” (BRISTOL-MYERS SQUIBB COMPANY, priority 2013, dated 2017).
